{"source": "patent US20240271104A1", "about": "“COLONIZATION OF SURFACES WITH BIOLOGICAL CELLS” (Eberhard Karls Universität Tübingen Medizinische Fakultät, priority 2021, published 2024)", "format_in_all_cases": "cell-based, human", "key": {"HUVECs [1]": {"tested_on": "HUVECs", "experiment": "Metabolic labeling of HUVECs with azide groups, detection with DBCO-Sulfo-Cy3 by flow cytometry", "conditions": "50 μM Ac4ManNAz 48 h, then 5 μM DBCO-Sulfo-Cy3 1 h", "description": "To functionalize the cell surface of HUVECs with azide groups, 2×10^5 HUVECs per well of a 6-well plate were seeded and treated with or without 50 μM N-azidoacetylmannosamine-tetraacylated (Ac4ManNAz, Sigma Aldrich) in 2 ml medium for 48 h at 37° C. with 5% CO2. To detect the formed azido groups, the cells were washed with DPBS without Ca^2+/Mg^2+ and incubated with 5 μM DBCO-Sulfo-Cy3 (Jena Bioscience, Germany) in DPBS with Ca^2+/Mg^2+ for 1 h at 37° C. and 5% CO2. Cells were washed three times with 10 ml DPBS, detached with trypsin/EDTA (0.04%/0.03%) and centrifuged at 300×g for 5 min. The cell pellet was resuspended in 0.5 ml DPBS, and Cy3 labeling of 10,000 cells was analyzed by flow cytometry (FACS SCAN, BD, Heidelberg, Germany). In addition to the flow cytometric analyses, cells were stained for 30 minutes with ActinGreen™ 488 ReadyP-robes® reagent (Invitrogen) for the cytoskeleton and for 5 minutes with 0.2 μg/ml DAPI (Sigma Aldrich) to visualize the nuclei."}, "HUVECs [2]": {"tested_on": "HUVECs", "experiment": "PrestoBlue cell viability assay after metabolic labeling", "conditions": "50 μM Ac4ManNAz 48 h", "description": "The influence of metabolic labeling on the viability of HUVECs was investigated 48 hours after labeling with 50 µM Ac4ManNAz using the PrestoBlue assay (Invitrogen, Carlsbad, USA). For this purpose, 500 μL of 1× Presto Blue cell viability reagent was added to each well of a 6-well plate and incubated for 1.5 h at 37° C. The fluorescence intensity of 100 μL supernatant was measured in triplicate at an excitation wavelength of 530 nm and an emission wavelength of 600 nm using a multimode microplate reader (Mithras LB 940, Berthold Technologies, Bad Wildbad, Germany)."}, "[3]": {"tested_on": "endothelial layer on HFMs", "experiment": "Reactivity of the endothelial layer on HFMs to an inflammatory stimulus (qRT-PCR of adhesion molecules)", "conditions": "50 ng/mL TNF-α, 4 hours, mRNA normalized to GAPDH", "description": "Endothelialized HFMs were incubated for 4 hours without or with 50 ng/mL tumor necrosis factor α (TNF-α, Sigma-Aldrich) in EGM™-2 endothelial cell growth medium without hydrocortisone. After incubation, HFMs were washed twice with DPBS and total RNA was isolated. Expression of the activation markers, endothelial leukocyte adhesion molecule 1 (E-selectin), vascular cell adhesion molecule 1 (VCAM-1) and intercellular adhesion molecule 1 (ICAM-1), was detected by qRT-PCR.\nAfter 40 cycles, melting was performed."}}}
{"molecule": "CC(=O)OC[C@H]1OC(OC(C)=O)[C@@H](NC(=O)CN=[N+]=[N-])[C@@H](OC(C)=O)[C@@H]1OC(C)=O", "note": "(some centres unmarked) [Ac4ManNAz, N-azidoacetylmannosamine-tetraacylated]", "values": [{"measurement": "Cy3-positive cells (N3 groups on the cell surface)", "setting": "HUVECs [1]", "result": "about 98%"}, {"measurement": "effect on viability of HUVECs", "setting": "HUVECs [2]", "result": "no effect"}]}
{"molecule": "tumor necrosis factor α [TNF-α]", "values": [{"measurement": "E-selectin expression compared to non-stimulated endothelial layer", "setting": "[3]", "result": 199, "unit": "fold"}, {"measurement": "ICAM-1 expression compared to non-stimulated endothelial layer", "setting": "[3]", "result": 162, "unit": "fold"}, {"measurement": "VCAM-1 expression compared to non-stimulated endothelial layer", "setting": "[3]", "result": 328, "unit": "fold"}]}
